Source: ChEMBL document CHEMBL1201862, “PubChem BioAssay data set” (2004)
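Tested at 5 concentrations; 48 h exposure; 96-well plates; endpoints linearly interpolated, else capped at highest concentration. Here, GI50 denotes the concentration required for 50% inhibition of growth.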 Activity calls are given as the source filed them. Rule as the data show it: active = GI50 up to about 1.1 µM and inactive = higher.

Experiments:
Assay in all cases: NCI-60 cell line screen, 48 h
HCT-116 = test system: HCT-116
U-251 = test system: U-251
SNB-75 = test system: SNB-75
MOLT-4 = test system: MOLT-4
SNB-19 = test system: SNB-19
LOX IMVI = test system: LOX IMVI
NCI-H522 = test system: NCI-H522
MDA-MB-435 = test system: MDA-MB-435
KM12 = test system: KM12
SK-MEL-28 = test system: SK-MEL-28
HL-60 = test system: HL-60
OVCAR-4 = test system: OVCAR-4
A549 = test system: A549
UACC-257 = test system: UACC-257
HCT-15 = test system: HCT-15
BT-549 = test system: BT-549
SF-539 = test system: SF-539
SK-MEL-2 = test system: SK-MEL-2
UO-31 = test system: UO-31

SMILES	GI50 (HCT-116)	GI50 (U-251)	GI50 (SNB-75)	GI50 (MOLT-4)	GI50 (SNB-19)	GI50 (LOX IMVI)	GI50 (NCI-H522)	GI50 (MDA-MB-435)	GI50 (KM12)	GI50 (SK-MEL-28)	GI50 (HL-60)	GI50 (OVCAR-4)	GI50 (A549)	GI50 (UACC-257)	GI50 (HCT-15) [µM]	GI50 (BT-549)	GI50 (SF-539)	GI50 (SK-MEL-2)	GI50 (UO-31)
C=CCN1CCC2(CC1)NC(=O)c1ccccc1O2	> 100 µM (inactive)	> 100 µM (inactive)	> 100 µM (inactive)	> 100 µM (inactive)	> 100 µM (inactive)	> 100 µM (inactive)	> 100 µM (inactive)	> 100 µM (inactive)	> 100 µM (inactive)	> 100 µM (inactive)	> 100 µM (inactive)	> 100 µM (inactive)	> 100 µM (inactive)	> 100 µM (inactive)	> 100	> 100 µM (inactive)	> 100 µM (inactive)	> 100 µM (inactive)	> 100 µM (inactive)
CCOC(=O)CCC(NC(=O)c1ccc(Nc2cnc3cc(C(F)(F)F)ccc3n2)cc1)C(=O)OCC (centres undefined)	17.8 µM (inactive)	9.48 µM (inactive)	1.9 µM (inactive)	> 100 µM (inactive)	11.7 µM (inactive)	> 100 µM (inactive)	30.3 µM (inactive)	> 100 µM (inactive)	61.9 µM (inactive)	> 100 µM (inactive)	> 100 µM (inactive)	36.7 µM (inactive)	> 89.3 µM (inactive)	> 100 µM (inactive)	> 100	18.5 µM (inactive)	> 100 µM (inactive)	> 100 µM (inactive)	> 100 µM (inactive)
CCOC(=O)c1c(O)nc(O)c(CC)c1C	> 100 µM (inactive)	> 100 µM (inactive)	> 100 µM (inactive)	> 100 µM (inactive)	> 100 µM (inactive)	> 100 µM (inactive)	> 100 µM (inactive)	> 100 µM (inactive)	> 100 µM (inactive)	> 100 µM (inactive)	> 100 µM (inactive)	> 100 µM (inactive)	> 100 µM (inactive)	> 100 µM (inactive)	> 100	> 100 µM (inactive)	67 µM (inactive)	> 100 µM (inactive)	> 100 µM (inactive)
O=[N+]([O-])/C=C/c1cc(Cl)c(/C=C/[N+](=O)[O-])cc1Cl	1.12 µM (active)	1.63 µM (inactive)	13.8 µM (inactive)	0.434 µM (active)	2.37 µM (inactive)	1.53 µM (inactive)	0.975 µM (active)	1.82 µM (inactive)	3.03 µM (inactive)	1.68 µM (inactive)	0.205 µM (active)	1.87 µM (inactive)	4.63 µM (inactive)	1.89 µM (inactive)	1.01	1.57 µM (inactive)	1.86 µM (inactive)	3.25 µM (inactive)	1.49 µM (inactive)
COc1ccccc1CCN1CCN(CCCc2ccccc2)CC1	33 µM (inactive)	> 100 µM (inactive)	> 100 µM (inactive)	89.7 µM (inactive)	> 100 µM (inactive)	64.6 µM (inactive)	32.4 µM (inactive)	85.5 µM (inactive)	62.7 µM (inactive)	> 100 µM (inactive)	65.9 µM (inactive)	89.7 µM (inactive)	85.7 µM (inactive)	60.4 µM (inactive)	42.6	> 100 µM (inactive)	> 100 µM (inactive)	> 100 µM (inactive)	46.3 µM (inactive)
c1ccc([P+](Cc2ccc(C[P+](c3ccccc3)(c3ccccc3)c3ccccc3)s2)(c2ccccc2)c2ccccc2)cc1	> 100 µM (inactive)	> 100 µM (inactive)	> 100 µM (inactive)	> 100 µM (inactive)	> 100 µM (inactive)	> 100 µM (inactive)	> 100 µM (inactive)	> 100 µM (inactive)	> 100 µM (inactive)	> 100 µM (inactive)	> 100 µM (inactive)	> 100 µM (inactive)	> 100 µM (inactive)	> 100 µM (inactive)	> 100	> 100 µM (inactive)	> 100 µM (inactive)	> 100 µM (inactive)	> 100 µM (inactive)
CC(=O)N1c2ccccc2Sc2cc(C(O)(C(F)(F)F)C(F)(F)F)ccc21	> 10 µM (inactive)	> 10 µM (inactive)	9.59 µM (inactive)	> 10 µM (inactive)	> 10 µM (inactive)	> 10 µM (inactive)	> 10 µM (inactive)	> 10 µM (inactive)	> 10 µM (inactive)	> 10 µM (inactive)	> 10 µM (inactive)	> 10 µM (inactive)	> 10 µM (inactive)	> 10 µM (inactive)	> 10	> 10 µM (inactive)	> 10 µM (inactive)	> 10 µM (inactive)	> 10 µM (inactive)
NCCOc1ccccn1	> 100 µM (inactive)	> 100 µM (inactive)	> 100 µM (inactive)	> 100 µM (inactive)	> 100 µM (inactive)	> 100 µM (inactive)	> 100 µM (inactive)	> 100 µM (inactive)	> 100 µM (inactive)	> 100 µM (inactive)	> 100 µM (inactive)	> 100 µM (inactive)	> 100 µM (inactive)	> 100 µM (inactive)	> 100	> 100 µM (inactive)	> 100 µM (inactive)	> 100 µM (inactive)	> 100 µM (inactive)
Cc1cc2ncn(C3CCCCO3)c2cc1C (centres undefined)	> 100 µM (inactive)	> 100 µM (inactive)	> 100 µM (inactive)	> 100 µM (inactive)	> 100 µM (inactive)	62.5 µM (inactive)	> 100 µM (inactive)	> 100 µM (inactive)	35.5 µM (inactive)	> 100 µM (inactive)	> 100 µM (inactive)	> 100 µM (inactive)	> 100 µM (inactive)	> 100 µM (inactive)	> 100	> 100 µM (inactive)	> 100 µM (inactive)	> 100 µM (inactive)	20.2 µM (inactive)
NC1CCN(c2nc3ccccc3c3c2CCCC3)CC1	4.01 µM (inactive)	4.59 µM (inactive)	9.93 µM (inactive)	2.09 µM (inactive)	8.67 µM (inactive)	3.69 µM (inactive)	5.73 µM (inactive)	2.2 µM (inactive)	4.07 µM (inactive)	2.73 µM (inactive)	1.77 µM (inactive)	1.38 µM (inactive)	9.44 µM (inactive)	2.1 µM (inactive)	5.37	12.7 µM (inactive)	3.33 µM (inactive)	5.12 µM (inactive)	4.05 µM (inactive)
CCOC(=O)c1c(-c2ccccc2)nc2c(OC)nccn12	> 100 µM (inactive)	> 100 µM (inactive)	> 100 µM (inactive)	14.5 µM (inactive)	> 100 µM (inactive)	> 100 µM (inactive)	> 100 µM (inactive)	> 100 µM (inactive)	> 100 µM (inactive)	> 100 µM (inactive)	> 100 µM (inactive)	> 100 µM (inactive)	> 100 µM (inactive)	> 100 µM (inactive)	> 100	> 100 µM (inactive)	> 100 µM (inactive)	> 100 µM (inactive)	20.5 µM (inactive)
